Data taken from patent publication US20050208496A1, “Methods of testing for bronchial asthma or chronic obstructive pulmonary disease” (Genox Research, Inc., priority 2002, published 2005).

System: respiratory epithelial cells

IL-13: human IL-13 (Peprotech, Inc.) added to the medium at 50 ng/mL to stimulate respiratory epithelial cells
KCNMA1 (47575_g_at) expression change (lot 2, Day 3, AI): −3.5
KCNMA1 (53796_at) expression change (lot 2, Day 3, AI): −4.8
KIAA0878 (48793_at) expression change (lot 2, Day 3, AI): −2.1
KLF7 34216_at expression change (lot 2, Day 3, AI): −2.6
KLF7 (42769_at) expression change (lot 2, Day 3, AI): −5.7
KRT15 37582_at expression change (lot 2, Day 3, AI): −2.7
LOC51297 (49616_at) expression change (lot 2, Day 3, AI): −13.4
LOC51297 (55440_at) expression change (lot 2, Day 3, AI): −10.8
LOC51297 (55442_g_at) expression change (lot 2, Day 3, AI): −14.4
LOC129642 (42065_at) expression change (lot 2, Day 3, AI): −2.8
LOC129642 (58288_at) expression change (lot 2, Day 3, AI): −3
MGC12536 46924_at expression change (lot 2, Day 3, AI): −4.2
MGC13102 (54791_at) expression change (lot 2, Day 3, AI): −2.1
MGC14128 55924_at expression change (lot 2, Day 3, AI): −3.3
MGC14128 (51669_r_at) expression change (lot 2, Day 3, AI): −3
MGC14597 (46030_at) expression change (lot 2, Day 3, AI): −8.5
N52554 47432_at expression change (lot 2, Day 3, AI): −2.3
N71183 52473_at expression change (lot 2, Day 3, AI): −2.2
PR01489 57777_at expression change (lot 2, Day 3, AI): −3.3
PSCA (63958_at) expression change (lot 2, Day 3, AI): −5.5
RAC2 32737_at expression change (lot 2, Day 3, AI): −17.4
RGC32 (57044_s_at) expression change (lot 2, Day 3, AI): −2.2
SCNN1B 39682_at expression change (lot 2, Day 3, AI): −12.3
SCYB14 (65823_at) expression change (lot 2, Day 3, AI): −2.1
SERPINA3 (75248_at) expression change (lot 2, Day 3, AI): −35.8
SLC11A3 (45826_at) expression change (lot 2, Day 3, AI): −2.5
SLC34A2 (48048_at) expression change (lot 2, Day 3, AI): −4.3
SPON2 52576_s_at expression change (lot 2, Day 3, AI): −3.1
STEAP 40297_at expression change (lot 2, Day 3, AI): −2.6
TCF8 33439_at expression change (lot 2, Day 3, AI): −2.7
TGFBI (68339_at) expression change (lot 2, Day 3, AI): −2.8
TNFAIP2 (74633_at) expression change (lot 2, Day 3, AI): −2.2
TNRC3 41246_at expression change (lot 2, Day 3, AI): −2
TPM1 36790_at expression change (lot 2, Day 3, AI): −5.4
TPM1 36791_g_at expression change (lot 2, Day 3, AI): −3.5
TPM1 36792_at expression change (lot 2, Day 3, AI): −5
UCP2 37591_at expression change (lot 2, Day 3, AI): −2.3
UGB 39220_at expression change (lot 2, Day 3, AI): −17.8
VEGFC 1934_s_at expression change (lot 2, Day 3, AI): −2.5
VIM 34091_s_at expression change (lot 2, Day 3, AI): −3.1
W72331 49486 at expression change (lot 2, Day 3, AI): −7.8
AA149682 (51925_at) expression fold change (lot 2, Day 3, AI method): 2.2 fold
AA167714 (54897_at) expression fold change (lot 2, Day 3, AI method): 2.9 fold
AA420479 (52539_at) expression fold change (lot 2, Day 3, AI method): 2.2 fold
AA541787 (52622_at) expression fold change (lot 2, Day 3, AI method): 2.2 fold
AA582926 (52307_at) expression fold change (lot 2, Day 3, AI method): 2.2 fold
AA604375 (44127_at) expression fold change (lot 2, Day 3, AI method): 2.1 fold
ADAM8 (40712_at) expression, fold change upon IL-13 stimulation (lot 2, Day 3, AI method): 2.7 fold
ADAM28 (35479_at) expression, fold change upon IL-13 stimulation (lot 2, Day 3, AI method): 3.5 fold
AI310524 (47087_at) expression fold change (lot 2, Day 3, AI method): 2 fold
AI565105 (54886_at) expression fold change (lot 2, Day 3, AI method): 2.2 fold
AI659927 (54033_at) expression fold change (lot 2, Day 3, AI method): 4.6 fold
AI718385 (53061_at) expression fold change (lot 2, Day 3, AI method): 2.2 fold
AI809925 (53010_at) expression fold change (lot 2, Day 3, AI method): 2.2 fold
AI989346 (52327_s_at) expression fold change (lot 2, Day 3, AI method): 2.2 fold
AKAP2 (35985_at) expression, fold change upon IL-13 stimulation (lot 2, Day 3, AI method): 2.5 fold
AKAP2 (48035_at) expression fold change (lot 2, Day 3, AI method): 3 fold
ALOX15 (34636_at) expression, fold change upon IL-13 stimulation (lot 2, Day 3, AI method): 112.2 fold
ARL7 (57151_at) expression fold change (lot 2, Day 3, AI method): 6.1 fold
AW019985 (48826_s_at) expression fold change (lot 2, Day 3, AI method): 9.8 fold
BAL (52167_at) expression fold change (lot 2, Day 3, AI method): 2.7 fold
BRCA1 (626_s_at) expression fold change (lot 2, Day 3, AI method): 19.3 fold
BST2 (39061_at) expression, fold change upon IL-13 stimulation (lot 2, Day 3, AI method): 5.8 fold
C21orf11 (58957_at) expression fold change (lot 2, Day 3, AI method): 7.1 fold
CCND3 (1794_at) expression fold change upon IL-13 stimulation (lot 2, Day 3, AI method): 2.3 fold
CCND3 (1795_g_at) expression fold change upon IL-13 stimulation (lot 2, Day 3, AI method): 2.4 fold
CD47 (37890_at) expression fold change (lot 2, Day 3, AI method): 2.4 fold
CDH6 (1620_at) expression fold change upon IL-13 stimulation (lot 2, Day 3, AI method): 5.6 fold
CDH6 (57421_at) expression fold change (lot 2, Day 3, AI method): 2.9 fold
CDH26 (46916_at) expression fold change (lot 2, Day 3, AI method): 10.5 fold
CH25H (32363_at) expression, fold change upon IL-13 stimulation (lot 2, Day 3, AI method): 14.9 fold
CLDN1 (46260_at) expression fold change (lot 2, Day 3, AI method): 2.4 fold
CLDN4 (35276_at) expression, fold change upon IL-13 stimulation (lot 2, Day 3, AI method): 2.2 fold
CTSC (133_at) expression, fold change upon IL-13 stimulation (lot 2, Day 3, AI method): 3.9 fold
CXCL16 (44095_at) expression fold change (lot 2, Day 3, AI method): 2.3 fold
DBCCR1 (40292_at) expression, fold change upon IL-13 stimulation (lot 2, Day 3, AI method): 7.9 fold
DD96 (31610_at) expression, fold change upon IL-13 stimulation (lot 2, Day 3, AI method): 5.3 fold
DKFZP564O0823 (41402_at) expression, fold change upon IL-13 stimulation (lot 2, Day 3, AI method): 5.4 fold
DKFZP566J091 (57197_at) expression fold change (lot 2, Day 3, AI method): 45.3 fold
DKFZp564N1116 (37784_at) expression, fold change upon IL-13 stimulation (lot 2, Day 3, AI method): 5 fold
DNAJA1 (276_at) expression fold change upon IL-13 stimulation (lot 2, Day 3, AI method): 2.2 fold
DPP4 (34823_at) expression fold change upon IL-13 stimulation (lot 2, Day 3, AI method): 7.6 fold
DPYD (38220_at) expression fold change upon IL-13 stimulation (lot 2, Day 3, AI method): 3.9 fold
EMILIN-2 (51628_at) expression fold change (lot 2, Day 3, AI method): 2.9 fold
FABP4 (38430_at) expression, fold change upon IL-13 stimulation (lot 2, Day 3, AI method): 2.5 fold
FBP1 (36495_at) expression fold change upon IL-13 stimulation (lot 2, Day 3, AI method): 4.4 fold
FETUB (32620_at) expression fold change (lot 2, Day 3, AI method): 37.6 fold
FETUB (33101_g_at) expression fold change (lot 2, Day 3, AI method): 24.7 fold
FLJ10261 (43366_at) expression fold change (lot 2, Day 3, AI method): 11.2 fold
FLJ10261 (43963_at) expression fold change (lot 2, Day 3, AI method): 14.4 fold
FLJ22693 (53777_at) expression fold change (lot 2, Day 3, AI method): 2.2 fold
FUT10 (908_at) expression fold change upon IL-13 stimulation (lot 2, Day 3, AI method): 8.9 fold
GADD45G (39154_at) expression fold change upon IL-13 stimulation (lot 2, Day 3, AI method): 5.3 fold
GBP5 (52615_at) expression fold change (lot 2, Day 3, AI method): 4.5 fold
GS3686 (36927_at) expression, fold change upon IL-13 stimulation (lot 2, Day 3, AI method): 6.4 fold
HAS3 (54604_at) expression fold change (lot 2, Day 3, AI method): 2 fold
HDAC9 (37483_at) expression fold change upon IL-13 stimulation (lot 2, Day 3, AI method): 3.7 fold
HS3ST1 (41556_s_at) expression fold change upon IL-13 stimulation (lot 2, Day 3, AI method): 5.8 fold
HSPA5 (47634_at) expression fold change (lot 2, Day 3, AI method): 3.7 fold
ICAMt (32640_at) expression fold change upon IL-13 stimulation (lot 2, Day 3, AI method): 2.8 fold
IFI27 (425_at) expression, fold change upon IL-13 stimulation (lot 2, Day 3, AI method): 2.5 fold
IFI27 (48864_at) expression fold change (lot 2, Day 3, AI method): 2.1 fold
IFI35 (464_s_at) expression, fold change upon IL-13 stimulation (lot 2, Day 3, AI method): 4.5 fold
IFI44 (37641_at) expression, fold change upon IL-13 stimulation (lot 2, Day 3, AI method): 3.8 fold
IFIT1 (915_at) expression, fold change upon IL-13 stimulation (lot 2, Day 3, AI method): 9 fold
IFIT1 (32814_at) expression, fold change upon IL-13 stimulation (lot 2, Day 3, AI method): 4 fold
